Test [1] concerns EPIAIRWAY™ tissue (normal and asthmatic lung epithelium). Nature of the test: Periostin levels in IL-13 stimulated […] tissue models (sandwich ELISA). The test is classed as cell-based, human. Conditions: stimulated with 50 ng/mL IL-13 for 48 hours. The method, then:
Biotin/streptavidin-HRP-based sandwich ELISA assays were performed as follows. Specific details such as anti-periostin capture antibodies, samples to be tested, and anti-periostin detection antibodies are noted for specific experiments in the various examples Variations to standard ELISA protocols are well known to those of ordinary skill in the art, and can be used according to this disclosure.
High binding ELISA plates were coated with an anti-periostin capture mAb, e.g., 4B4.B11 (2 μg/mL in PBS; 100 μL/well), and were incubated overnight at 4° C. The plates were washed three times with 200 μL/well wash buffer (PBS/0.1% TWEEN-20®). Following washing, 200 μL/well block buffer (e.g., PBS/50× dilution of reagent diluent concentrate (available from R & D Systems)/0.05% TWEEN-20® or PBS/3% nonfat dry milk/0.1% TWEEN-20®) was added to each well, and the plates were incubated for one hour at room temperature. The plates were then washed three times as noted above.
For the standard curve, periostin standards (e.g., standards available from R & D Systems Cat #3548-F2) were serially diluted in block buffer, e.g., 2-fold dilutions from 50 ng/mL to 0.78 ng/mL. […] Finally the plates were read on a spectrophotometer at λ=450 nm. […]

Test [2] deals with patients with uncontrolled asthma. Conditions: above-median vs below-median baseline serum periostin; cited from earlier work.
In test [3] the test system is adults with uncontrolled, severe asthma. Nature of the test: Phase 2b study CD-RI-CAT-354-1049 of SC tralokinumab, subgroup analysis by baseline serum periostin. The format is in vivo, human. The conditions noted are these: for Asthma exacerbation rate reduction: 300 mg Q2W vs placebo. The method, then: A 5-week screening/run-in period (Week −5 to −1 [Day −1]) preceded randomisation. Starting at Week −4 (Day −28), patients received a fixed-dose combination product of fluticasone/salmeterol, either as an MDI (230 μg/21 μg) at a dose of 2 inhalations twice per day or as a DPI (500 μg/50 μg) at a dose of one inhalation twice per day. If the patient was also taking additional asthma controller medications (including leukotriene modifiers, theophylline, cromones, a secondary ICS, or oral prednisolone 20 mg/day or equivalent OCS), then these medications were to be continued at a stable dose during the screening/run-in and treatment period.
Patients were randomised in a 1:1 ratio to one of 2 cohorts (Cohort 1 or Cohort 2).

[4] abbreviates: post hoc, 300 mg Q2W, FEV1 reversibility ≥12% and serum periostin < median.
The mark [5] stands for this setting: post hoc, 300 mg Q2W, FEV1 reversibility ≥12% and serum periostin ≥ median.
Where [6] appears, read: post hoc, reversible patients regardless of serum periostin level.

Where “and” joins values, the source holds several entries; their conditions need not be identical. Identical values can stand only once.

“IL-13: 114 amino acid cytokine used to stimulate periostin expression”: the periostin levels result in test [1] was “increase”.
On to “lebrikizumab: anti-human-IL-13 antibody (SEQ ID NOs 6-7), Roche/Genentech”, for which, in test [2], the AER reduction entry was “greater AER reduction” and the “increases in FEV1” value is on record as “larger increases”.
With “tralokinumab: anti-IL-13 monoclonal antibody (SEQ ID NOs 8-9)”, the “percent change from baseline in pre-bronchodilator FEV1 over time” value is reported as “No significant increases” in test [3] (300 mg Q2/4W, through to Week 53, periostin < median); “No significant increases” in test [3] (300 mg Q2W, through to Week 53, periostin < median); “Relative increases” in test [3] (300 mg Q2W, through to Week 53, periostin >= median). In addition, the “Asthma exacerbation rate reduction” value in test [3] (Week 53, ITT (regardless of serum periostin level)) amounted to 7%; in test [3] (Week 53, baseline serum Periostin ≥ Median) it was 25%. For the same substance, the “Change from baseline in ACQ-6” value in test [3] (300 mg Q2W, ITT) was −0.18; in test [3] (300 mg Q2W, Periostin < Median) it was −0.02; in test [3] (300 mg Q2W, Periostin ≥ Median) it was −0.23. Further, the “Change from baseline in AQLQ” value came to 0.21 in test [3] (300 mg Q2W, ITT); 0.21 in test [3] (300 mg Q2W, Periostin < Median); 0.22 in test [3] (300 mg Q2W, Periostin ≥ Median). Further, the “Percent change from baseline in FEV1” value in test [3] (300 mg Q2W, Week 53, ITT (regardless of serum periostin level)) was 7.1%; in test [3] (300 mg Q2W, Week 53, Periostin < Median), 7.06%; in test [3] (300 mg Q2W, Week 53, Periostin ≥ Median), 6.75% and 6.8%. Also, in test [3] (baseline serum periostin above the median compared to below the median), the “reduction in serum periostin levels” value was “Greater reduction”. Besides, the “increase in FEV1” value amounted to 7.62% in test [3] (setting [4]) and 11.07% in test [3] (setting [6]). For the same substance, the entries for the “reduction in AER” value in test [3] (setting [4]) and in test [3] (setting [5]) were 4% and 54%, respectively. In addition, the “percentage increase from baseline in pre-bronchodilator FEV1 compared to placebo” value in test [3] (setting [5]) was determined as 13.85%. For the same substance, in test [3] (setting [6]), the AER reduction came to 34%. Besides, the serum periostin levels result in test [3] (soon after the first dose and for the duration of the study) is listed as “substantially reduced”.
